Measurements published in US20200188471A1 (GUILIN EIGHT PLUS ONE PHARMACEUTICAL CO., LTD., priority 2017, published 2020).
Read-outs that look alike come from different tables or passages of the source. No end group written: not given here.

T1: TNFR2 (Homo sapiens, UniProt P20333)
T1 sequence (P20333 23-461): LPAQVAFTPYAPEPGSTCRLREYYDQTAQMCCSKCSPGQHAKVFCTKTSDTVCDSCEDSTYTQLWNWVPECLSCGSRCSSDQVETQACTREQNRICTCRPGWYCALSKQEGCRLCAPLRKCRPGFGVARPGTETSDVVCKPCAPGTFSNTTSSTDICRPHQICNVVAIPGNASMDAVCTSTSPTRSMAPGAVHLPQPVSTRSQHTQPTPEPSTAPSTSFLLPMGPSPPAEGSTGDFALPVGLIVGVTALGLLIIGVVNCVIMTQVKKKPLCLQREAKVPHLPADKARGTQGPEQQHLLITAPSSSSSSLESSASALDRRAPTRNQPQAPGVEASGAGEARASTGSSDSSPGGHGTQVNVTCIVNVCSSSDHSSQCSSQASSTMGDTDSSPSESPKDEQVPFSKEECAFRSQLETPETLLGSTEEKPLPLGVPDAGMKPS

T2: TNFR1 (Homo sapiens, UniProt P19438)
T2 sequence (P19438 30-455): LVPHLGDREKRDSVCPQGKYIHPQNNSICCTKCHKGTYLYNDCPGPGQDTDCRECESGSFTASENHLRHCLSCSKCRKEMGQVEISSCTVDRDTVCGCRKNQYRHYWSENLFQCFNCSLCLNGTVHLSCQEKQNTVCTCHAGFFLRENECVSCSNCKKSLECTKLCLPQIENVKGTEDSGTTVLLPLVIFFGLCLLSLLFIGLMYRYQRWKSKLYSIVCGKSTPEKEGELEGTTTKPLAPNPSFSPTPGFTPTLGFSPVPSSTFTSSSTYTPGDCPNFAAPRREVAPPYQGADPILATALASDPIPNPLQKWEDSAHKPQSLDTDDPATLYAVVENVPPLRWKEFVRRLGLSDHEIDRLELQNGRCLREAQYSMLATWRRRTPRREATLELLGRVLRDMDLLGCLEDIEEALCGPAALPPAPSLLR

T3: interaction of TNFR1 and TNF-α (Homo sapiens, UniProt P19438)
T3 sequence (P19438 30-211 limits assumed): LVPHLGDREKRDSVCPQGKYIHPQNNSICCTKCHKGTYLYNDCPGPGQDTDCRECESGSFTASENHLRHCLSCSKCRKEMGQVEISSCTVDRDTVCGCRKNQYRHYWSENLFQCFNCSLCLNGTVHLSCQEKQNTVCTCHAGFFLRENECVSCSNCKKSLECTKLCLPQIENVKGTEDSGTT

T4: interaction of TNFR1 with TNF-α (Homo sapiens, UniProt P19438)
T4 sequence (P19438 30-211 limits assumed): T3 sequence (P19438 30-211 limits assumed)


Experiments:
CIA mice [1] = experiment: Arthritis index in type II bovine collagen-induced arthritis (CIA) mice; type: in vivo, DBA/1 mice; settings: i.p. 1600 ug/kg once a day for 18 days, vs model group
Protocol: (§1) After 3 days of adaptation, DBA/1 mice were weighed and began to model. Six were randomly selected as the normal group, and the rest were the experimental group.
(§2) Day 0: Take bovine type IT collagen (4 mg/ml) and vortex and mix with an equal volume of CFA (4 mg/ml). It is better to not disperse on the water, and 100 ul/head is injected intradermally into the tail of the mouse.
(§3) Day 21: Take bovine type II collagen (4 mg/ml) and vortex mixed with an equal volume of IFA (4 mg/ml) until the droplets are not dispersed on the water. The mice are injected intradermally with 100 ul/head. On the 30th day, the model was successfully established. […] The drug was administered by injection once a day for 18 days.
(§4) One-Way ANOVA statistical analysis of the data using Graphpad Prism 5 was considered statistically significant at P<0.05. “*” indicates P<0.05, “**” indicates P<0.01, and “***” indicates P<0.001.

TNFR2 [2] = target: T1, TNFR2; experiment: MST interaction with TNFR2; type: binding
TNFR1 [3] = target: T2, TNFR1; settings: read-out: binding capacity with TNFR1 (KD); SPR; from Hailong Jiang 2015 master dissertation of the inventors' group; cited from earlier work
[4] = target: T3, interaction of TNFR1 and TNF-α; experiment: MST competitive inhibition between TNF-α and TNFR1; type: binding
Description: Calculate the KD value by software. The changes of TNF-α saturation concentration, response amplitude and KD value before and after Hydrostatin-SN10 were compared.

[5] = target: T4, interaction of TNFR1 with TNF-α; experiment: BIAcore (SPR) competitive inhibition between TNF-α and TNFR1; type: binding
CIA mice [6] = experiment: Micro-CT detection of bone destruction in CIA mice; type: in vivo, DBA/1 mice; settings: for trabecular bone damage: Micro-CT of trabecular bone; for trabecular bone damage / degree of bone destruction, hind limbs: CIA mice; for trabecular bone damage / bone area/tissue volume (BS/TV) / bone mineral density (BMD) / bone surface area/bone volume (BS/BV) / bone volume/tissue volume (BV/TV) / number of trabeculae (Th.N) / trabecular model factor (Tb.pf) / trabecular separation (Tb.sp) / trabecular thickness (Tb.Th): vs model group; for degree of bone destruction, hind limbs / bone area/tissue volume (BS/TV) / bone mineral density (BMD) / bone surface area/bone volume (BS/BV) / bone volume/tissue volume (BV/TV) / number of trabeculae (Th.N) / trabecular model factor (Tb.pf) / trabecular separation (Tb.sp) / trabecular thickness (Tb.Th): Micro-CT; for degree of bone destruction, hind limbs: peptides 1600 ug/kg, infliximab 4 mg/kg i.p.; for bone area/tissue volume (BS/TV) / bone mineral density (BMD) / bone surface area/bone volume (BS/BV) / bone volume/tissue volume (BV/TV) / number of trabeculae (Th.N) / trabecular model factor (Tb.pf) / trabecular separation (Tb.sp) / trabecular thickness (Tb.Th): trabecular bone
TNF-α [7] = target: T5, TNF-α (Homo sapiens, UniProt P01375); experiment: MST interaction with TNF-α; type: binding; settings: fluorescently labeled TNF-α
CIA mice [8] = experiment: Treg (Foxp3) and Th1, Th2, Th17 expression in T cells/splenocytes of CIA mice; type: in vivo, DBA/1 mice; settings: vs model group; for expression level of Foxp3 in Treg cells: CIA mice; for expression level of IFN-γ (Th1) / expression level of IL-17 (Th17) / expression of IL-4 (Th2): splenocytes of CIA mice
Protocol: as §1, §2, §3, §4
Studies have shown that Th17 cells secrete high levels of IL-17, which stimulates the secretion of matrix metalloproteinase-1, IL-1β by FLS. TNF-α and other co-inducing NF-κB receptor activator ligands are involved in the bone destruction of RA and inflammatory damage in tissues. The effect was observed by measuring the expression of helper T cells in splenocytes.

TNF-α [9] = target: T5, TNF-α; experiment: BIAcore (SPR) interaction with TNF-α; type: binding
CIA mice [10] = experiment: Collagen-specific antibody and inflammatory factors in serum of CIA mice (ELISA, multi-factor kit); type: in vivo, DBA/1 mice; settings: 1600 ug/kg i.p., vs model group
Protocol: as §1, §2, §3, §4
The ELISA kit and multi-factor kit were used to determine the collagen-specific antibody Ig G and pro-inflammatory factors IL-17, TNF-α, IL-6, IFN-γ and anti-inflammatory factor IL-10 in the serum of each group of mice. Compared with the normal control group, the collagen-specific antibody Ig G and the pro-inflammatory factors IL-17, TNF-α, IL-6, IFN-γ in the serum of the model group mice.

CIA mice [11] = experiment: Joint histology of CIA mice (HE staining, TNF-α immunohistochemistry, TRAP staining); type: in vivo, DBA/1 mice; settings: for osteoclasts in joints / tartrate-resistant phosphatase (TRAP) in joints: TRAP staining; for osteoclasts in joints / tartrate-resistant phosphatase (TRAP) in joints / amount of expression of TNF-α in the joints: vs model group; for amount of expression of TNF-α in the joints: immunohistochemistry
TNF-α [12] = experiment: MST, fluorescently labelled TNF-α, TNFR1 titrated, no SN10
TNFR2 [13] = experiment: MST, fluorescently labelled TNFR2, TNF-α titrated, no SN10
TNFR1 [14] = experiment: MST, fluorescently labelled TNFR1, TNF-α titrated, no SN10
TNFR2 [15] = experiment: MST, fluorescently labelled TNFR2, TNF-α titrated in the presence of 100 µM SN10; apparent KD
TNFR1 [16] = experiment: BIAcore SPR, TNFR1 coated on CM-5 chip, peptide injected
TNFR1 [17] = experiment: MST, fluorescently labelled TNFR1 with an SN10 dilution series
TNFR1 [18] = target: TNFR1
TNFR1 [19] = target: TNFR1; remark: listed apart in the source

Molecule | trabecular bone damage (CIA mice [6]) | degree of bone destruction, hind limbs (CIA mice [6]) | bone area/tissue volume (BS/TV) (CIA mice [6]) | bone mineral density (BMD) (CIA mice [6]) | bone surface area/bone volume (BS/BV) (CIA mice [6]) | bone volume/tissue volume (BV/TV) (CIA mice [6]) | number of trabeculae (Th.N) (CIA mice [6]) | trabecular model factor (Tb.pf) (CIA mice [6]) | trabecular separation (Tb.sp) (CIA mice [6]) | trabecular thickness (Tb.Th) (CIA mice [6]) | expression level of Foxp3 in Treg cells (CIA mice [8]) | expression level of IFN-γ (Th1) (CIA mice [8]) | expression level of IL-17 (Th17) (CIA mice [8]) | expression of IL-4 (Th2) (CIA mice [8]) | content of IFN-γ in serum (CIA mice [10]) | content of IL-6 in serum (CIA mice [10]) | content of IL-17 in serum (CIA mice [10]) | content of TNF-α in serum (CIA mice [10]) | inflammatory cell infiltration (CIA mice [11]; HE staining of joint) | joint structure (CIA mice [11]; HE staining of joint) | other results
H-DEQHLETELH [Hydrostatin-SN10] | significantly reduced bone damage | significantly reduced the degree of bone destruction | significantly up-regulated | significantly up-regulated | significant down | significantly up-regulated | significantly up-regulated | significant down | significant down | significantly up-regulated | significantly increased | significantly down-regulated | significantly down-regulated | up-regulated | significantly reduced | significantly reduced | significantly reduced | significantly reduced | more severe inflammatory cell infiltration | intact joint structure | arthritis index (CIA mice [1]): reduced; binding to TNFR2 (TNFR2 [2]; fluorescently labeled TNFR2): not binding; binding to TNFR2 (TNFR2 [2]; fluorescently labeled TNFR2, listed as SN10): no binding; Kd (TNFR1 [3]): ~2.8 µM; competitive inhibition of the interaction of TNFR1 and TNF-α [4]: competitively inhibit; competitive inhibition of the interaction of TNFR1 with TNF-α [5]: competitively inhibits; binding to TNF-α (TNF-α [7]): not binding; binding to TNF-α (TNF-α [7]; listed as SN10): no binding; binding to TNF-α (TNF-α [9]): does not bind; binding to TNF-α (TNF-α [9]; listed as SN10): no binding; content of anti-inflammatory factor IL10 in serum (CIA mice [10]): Significantly increased; content of collagen-specific antibody Ig G in serum (CIA mice [10]): significantly reduced; synovial hyperplasia (CIA mice [11]; HE staining of joint): severe synovial hyperplasia; osteoclasts in joints (CIA mice [11]): reduced osteoclasts; tartrate-resistant phosphatase (TRAP) in joints (CIA mice [11]): reduced; amount of expression of TNF-α in the joints (CIA mice [11]): reduced
PEG-SN10: Hydrostatin-SN10 modified by mPEG2000, carboxyl of mPEG2000 connected to free amino group of N-terminal aspartic acid (mPEG2000-DEQHLETELH) | significantly reduced bone damage | significantly reduced the degree of bone destruction | significantly up-regulated | significantly up-regulated | significant down | significantly up-regulated | significantly up-regulated | significant down | significant down | significantly up-regulated | significantly increased | significantly down-regulated | significantly down-regulated | up-regulated | significantly reduced | significantly reduced | significantly reduced | significantly reduced | weak inflammatory cell infiltration | complete joint structure | content of anti-inflammatory factor IL10 in serum (CIA mice [10]): Significantly increased; content of collagen-specific antibody Ig G in serum (CIA mice [10]): significantly reduced; joint damage (CIA mice [11]; HE staining of joint): significantly weakened; osteoclasts in joints (CIA mice [11]): reduced osteoclasts; tartrate-resistant phosphatase (TRAP) in joints (CIA mice [11]): reduced; amount of expression of TNF-α in the joints (CIA mice [11]): reduced
infliximab: anti-TNF-α monoclonal antibody, positive drug [reference compound] | significantly reduced bone damage | significantly reduced the degree of bone destruction | – | – | – | – | – | – | – | – | significantly increased | significantly down-regulated | significantly down-regulated | up-regulated | – | – | – | – | weak inflammatory cell infiltration | complete joint structure | joint damage (CIA mice [11]; HE staining of joint): significantly weakened
TNFR1 (receptor) | – | – | – | – | – | – | – | – | – | – | – | – | – | – | – | – | – | – | – | – | Kd (TNF-α [12]): 0.00284 µM
TNF-α (ligand) | – | – | – | – | – | – | – | – | – | – | – | – | – | – | – | – | – | – | – | – | Kd (TNFR2 [13]): 0.328 µM; Kd (TNFR1 [14]): 0.116 µM; Kd (TNFR2 [15]): 0.384 µM
DEQHLETELH (modifications not checked) [selective TNFR1 antagonist peptide Hydrostatin-SN10] | – | – | – | – | – | – | – | – | – | – | – | – | – | – | – | – | – | – | – | – | Kd (TNFR1 [16]): 2.8 µM; Kd (TNFR1 [17]): 2.8 µM; Kd (TNFR1 [18]): 2.77 µM; Kd (TNFR1 [19]): 2.83 µM
